Experimental data published in ChEMBL document CHEMBL5715260, “Selectivity Literature for EUbOPEN Chemogenomic Library” (2024).

Key:
[1] = target: T1, Hepatocyte nuclear factor 4-alpha (Homo sapiens) (UniProt P41235); assay: Selectivity interaction (Reporter gene assay) EUB0000184b HNF4A; set-up: recommended concentration 1 uM
T1 sequence (whole entry): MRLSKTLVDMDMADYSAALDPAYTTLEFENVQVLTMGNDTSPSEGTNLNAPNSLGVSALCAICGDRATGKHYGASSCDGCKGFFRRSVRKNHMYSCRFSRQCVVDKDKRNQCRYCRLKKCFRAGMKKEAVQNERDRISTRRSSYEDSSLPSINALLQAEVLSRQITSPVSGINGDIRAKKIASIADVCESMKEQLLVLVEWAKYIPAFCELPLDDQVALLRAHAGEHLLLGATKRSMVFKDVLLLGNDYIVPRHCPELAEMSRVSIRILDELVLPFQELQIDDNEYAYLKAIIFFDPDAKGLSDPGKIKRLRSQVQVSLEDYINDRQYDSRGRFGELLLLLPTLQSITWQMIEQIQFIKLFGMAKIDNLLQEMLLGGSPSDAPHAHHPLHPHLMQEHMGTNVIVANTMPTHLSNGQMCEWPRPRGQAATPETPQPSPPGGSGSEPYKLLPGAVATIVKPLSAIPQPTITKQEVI

[2] = target: Steroidogenic factor 1 (Homo sapiens) (UniProt Q13285); assay: Selectivity interaction (Reporter gene assay) EUB0000184b NR5A1; set-up: recommended concentration 1 uM
Steroidogenic factor 1 (Homo sapiens), sequence (Q13285 whole entry): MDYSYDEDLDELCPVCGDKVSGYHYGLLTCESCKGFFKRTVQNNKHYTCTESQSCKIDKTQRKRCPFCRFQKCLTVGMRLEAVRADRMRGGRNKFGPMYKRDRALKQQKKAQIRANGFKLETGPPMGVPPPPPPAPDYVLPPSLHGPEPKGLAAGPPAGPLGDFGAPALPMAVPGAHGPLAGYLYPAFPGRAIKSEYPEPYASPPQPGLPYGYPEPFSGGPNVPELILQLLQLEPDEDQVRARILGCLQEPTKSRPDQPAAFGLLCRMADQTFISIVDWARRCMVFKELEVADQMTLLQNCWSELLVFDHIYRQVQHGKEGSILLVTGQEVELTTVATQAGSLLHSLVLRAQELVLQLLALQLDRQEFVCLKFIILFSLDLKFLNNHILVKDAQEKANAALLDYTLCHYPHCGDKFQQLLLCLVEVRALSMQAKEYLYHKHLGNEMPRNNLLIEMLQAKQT

[3] = target: Nuclear receptor subfamily 2 group E member 1 (Homo sapiens) (UniProt Q9Y466); assay: Selectivity interaction (Reporter gene assay) EUB0000184b NR2E1; set-up: recommended concentration 1 uM
Nuclear receptor subfamily 2 group E member 1 (Homo sapiens), sequence (Q9Y466 whole entry): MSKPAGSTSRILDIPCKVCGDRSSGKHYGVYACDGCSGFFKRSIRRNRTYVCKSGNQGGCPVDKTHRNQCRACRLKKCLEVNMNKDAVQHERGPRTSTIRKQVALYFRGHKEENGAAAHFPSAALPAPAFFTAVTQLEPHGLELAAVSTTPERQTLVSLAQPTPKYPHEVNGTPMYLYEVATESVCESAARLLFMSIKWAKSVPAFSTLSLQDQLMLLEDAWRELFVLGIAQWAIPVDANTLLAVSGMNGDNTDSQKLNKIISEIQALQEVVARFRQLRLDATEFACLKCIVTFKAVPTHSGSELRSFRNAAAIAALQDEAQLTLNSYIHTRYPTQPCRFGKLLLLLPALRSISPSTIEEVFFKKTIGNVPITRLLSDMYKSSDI

[4] = target: T2, Retinoic acid receptor RXR-alpha (Homo sapiens) (UniProt P19793); assay: Selectivity interaction (Reporter gene assay) EUB0000184b RXRA; set-up: recommended concentration 1 uM
T2 sequence (whole entry): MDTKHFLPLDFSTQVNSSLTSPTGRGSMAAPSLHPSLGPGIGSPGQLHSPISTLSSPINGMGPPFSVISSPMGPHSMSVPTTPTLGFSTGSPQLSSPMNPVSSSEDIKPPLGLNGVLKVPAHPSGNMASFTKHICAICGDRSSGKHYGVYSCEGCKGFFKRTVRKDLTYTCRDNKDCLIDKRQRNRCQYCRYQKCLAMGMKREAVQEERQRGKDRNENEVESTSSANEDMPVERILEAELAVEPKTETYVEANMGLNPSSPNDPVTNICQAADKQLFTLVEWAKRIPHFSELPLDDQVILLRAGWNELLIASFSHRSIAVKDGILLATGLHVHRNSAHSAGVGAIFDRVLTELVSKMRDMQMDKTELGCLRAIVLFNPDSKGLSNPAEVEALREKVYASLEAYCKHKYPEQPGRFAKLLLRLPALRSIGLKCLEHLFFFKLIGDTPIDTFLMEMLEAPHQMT

[5] = target: Nuclear receptor subfamily 4immunitygroup A member 1 (Homo sapiens) (UniProt P22736); assay: Selectivity interaction (Reporter gene assay) EUB0000184b NR4A1; set-up: recommended concentration 1 uM
Nuclear receptor subfamily 4immunitygroup A member 1 (Homo sapiens), sequence (P22736 whole entry): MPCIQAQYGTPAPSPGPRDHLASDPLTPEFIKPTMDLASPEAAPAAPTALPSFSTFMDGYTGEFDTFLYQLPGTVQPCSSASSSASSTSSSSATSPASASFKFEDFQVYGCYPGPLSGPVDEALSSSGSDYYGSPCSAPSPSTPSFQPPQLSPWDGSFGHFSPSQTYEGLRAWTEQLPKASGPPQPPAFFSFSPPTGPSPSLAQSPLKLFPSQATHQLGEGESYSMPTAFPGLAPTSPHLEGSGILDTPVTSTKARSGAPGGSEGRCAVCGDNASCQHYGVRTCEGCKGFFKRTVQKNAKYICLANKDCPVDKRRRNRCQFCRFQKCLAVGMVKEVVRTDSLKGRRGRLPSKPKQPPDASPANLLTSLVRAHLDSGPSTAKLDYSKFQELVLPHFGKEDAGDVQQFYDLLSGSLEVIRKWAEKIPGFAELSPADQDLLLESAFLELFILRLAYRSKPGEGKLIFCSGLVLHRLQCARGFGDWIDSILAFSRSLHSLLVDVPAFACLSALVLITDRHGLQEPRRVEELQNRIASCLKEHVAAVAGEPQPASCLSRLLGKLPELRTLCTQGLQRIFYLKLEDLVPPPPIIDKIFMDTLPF

[6] = target: T3, Alpha trans-inducing protein (Human alphaherpesvirus 1) (UniProt A0A5J6DW59); assay: Selectivity interaction (Reporter gene assay) EUB0000184b UL48; set-up: recommended concentration 1 uM
T3 sequence (A0A5J6DW59 as listed by the source): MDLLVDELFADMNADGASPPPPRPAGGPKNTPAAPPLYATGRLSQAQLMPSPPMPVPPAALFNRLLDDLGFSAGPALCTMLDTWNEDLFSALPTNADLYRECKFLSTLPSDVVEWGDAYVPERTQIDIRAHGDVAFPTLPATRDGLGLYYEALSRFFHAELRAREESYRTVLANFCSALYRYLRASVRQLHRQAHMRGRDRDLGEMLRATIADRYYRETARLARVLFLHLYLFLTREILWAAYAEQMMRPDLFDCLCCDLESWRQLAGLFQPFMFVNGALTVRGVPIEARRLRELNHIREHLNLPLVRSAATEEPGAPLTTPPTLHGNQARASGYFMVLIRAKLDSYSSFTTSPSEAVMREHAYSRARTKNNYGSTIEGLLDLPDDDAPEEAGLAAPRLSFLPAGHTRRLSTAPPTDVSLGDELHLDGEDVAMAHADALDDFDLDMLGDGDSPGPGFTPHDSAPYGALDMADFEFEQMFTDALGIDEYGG

[7] = target: T4, Nuclear receptor subfamily 2 group C member 1 (Homo sapiens) (UniProt P13056); assay: Selectivity interaction (Reporter gene assay) EUB0000184b NR2C1; set-up: recommended concentration 1 uM
T4 sequence (whole entry): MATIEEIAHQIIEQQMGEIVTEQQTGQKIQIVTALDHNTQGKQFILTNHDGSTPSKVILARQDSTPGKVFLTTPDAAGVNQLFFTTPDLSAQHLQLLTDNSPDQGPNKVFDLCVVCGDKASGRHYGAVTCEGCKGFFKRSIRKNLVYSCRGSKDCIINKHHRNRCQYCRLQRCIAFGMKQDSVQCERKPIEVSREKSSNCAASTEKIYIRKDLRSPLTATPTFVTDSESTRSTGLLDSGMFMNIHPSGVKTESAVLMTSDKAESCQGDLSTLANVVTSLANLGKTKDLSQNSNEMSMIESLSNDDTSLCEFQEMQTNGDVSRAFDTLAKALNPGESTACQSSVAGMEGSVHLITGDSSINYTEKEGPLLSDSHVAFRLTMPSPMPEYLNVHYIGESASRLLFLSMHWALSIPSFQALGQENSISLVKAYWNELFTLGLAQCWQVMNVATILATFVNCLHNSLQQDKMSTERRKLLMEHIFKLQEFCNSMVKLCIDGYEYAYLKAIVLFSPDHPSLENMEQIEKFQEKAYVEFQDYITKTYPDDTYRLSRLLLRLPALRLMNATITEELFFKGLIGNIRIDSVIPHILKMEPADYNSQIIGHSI

[8] = target: T4, Nuclear receptor subfamily 2 group C member 1 (Homo sapiens); assay: Selectivity interaction (Reporter gene assay) EUB0000081c NR2C1; set-up: recommended concentration 1 uM
[9] = target: T3, Alpha trans-inducing protein (Human alphaherpesvirus 1); assay: Selectivity interaction (Reporter gene assay) EUB0000081c UL48; set-up: recommended concentration 1 uM
[10] = target: T1, Hepatocyte nuclear factor 4-alpha (Homo sapiens); assay: Selectivity interaction (Reporter gene assay) EUB0000081c HNF4A; set-up: recommended concentration 1 uM
[11] = target: Nuclear receptor subfamily 2 group E member 1 (Homo sapiens) (UniProt Q9Y466); assay: Selectivity interaction (Reporter gene assay) EUB0000081c NR2E1; set-up: recommended concentration 1 uM
[12] = target: Nuclear receptor subfamily 4immunitygroup A member 1 (Homo sapiens) (UniProt P22736); assay: Selectivity interaction (Reporter gene assay) EUB0000081c NR4A1; set-up: recommended concentration 1 uM
[13] = target: T2, Retinoic acid receptor RXR-alpha (Homo sapiens); assay: Selectivity interaction (Reporter gene assay) EUB0000081c RXRA; set-up: recommended concentration 1 uM
[14] = target: Steroidogenic factor 1 (Homo sapiens) (UniProt Q13285); assay: Selectivity interaction (Reporter gene assay) EUB0000081c NR5A1; set-up: recommended concentration 1 uM
[15] = target: T1, Hepatocyte nuclear factor 4-alpha (Homo sapiens); assay: Selectivity interaction (Reporter gene assay) EUB0000188b HNF4A; set-up: recommended concentration 1 uM
[16] = target: Nuclear receptor subfamily 4immunitygroup A member 1 (Homo sapiens) (UniProt P22736); assay: Selectivity interaction (Reporter gene assay) EUB0000188b NR4A1; set-up: recommended concentration 1 uM
[17] = target: T4, Nuclear receptor subfamily 2 group C member 1 (Homo sapiens); assay: Selectivity interaction (Reporter gene assay) EUB0000188b NR2C1; set-up: recommended concentration 1 uM
[18] = target: T3, Alpha trans-inducing protein (Human alphaherpesvirus 1); assay: Selectivity interaction (Reporter gene assay) EUB0000188b UL48; set-up: recommended concentration 1 uM
[19] = target: Nuclear receptor subfamily 2 group E member 1 (Homo sapiens) (UniProt Q9Y466); assay: Selectivity interaction (Reporter gene assay) EUB0000188b NR2E1; set-up: recommended concentration 1 uM
[20] = target: Steroidogenic factor 1 (Homo sapiens) (UniProt Q13285); assay: Selectivity interaction (Reporter gene assay) EUB0000188b NR5A1; set-up: recommended concentration 1 uM
[21] = target: T2, Retinoic acid receptor RXR-alpha (Homo sapiens); assay: Selectivity interaction (Reporter gene assay) EUB0000188b RXRA; set-up: recommended concentration 1 uM; details: reference bexarotene 1 uM, Selectivity number of off-targets 0.0, Selectivity number of targets 1.0, Source Knowledge inhouse
[22] = target: T1, Hepatocyte nuclear factor 4-alpha (Homo sapiens); assay: Selectivity interaction (Reporter gene assay) EUB0000190b HNF4A; set-up: recommended concentration 1 uM
[23] = target: Steroidogenic factor 1 (Homo sapiens) (UniProt Q13285); assay: Selectivity interaction (Reporter gene assay) EUB0000190b NR5A1; set-up: recommended concentration 1 uM
[24] = target: T4, Nuclear receptor subfamily 2 group C member 1 (Homo sapiens); assay: Selectivity interaction (Reporter gene assay) EUB0000190b NR2C1; set-up: recommended concentration 1 uM
[25] = target: T2, Retinoic acid receptor RXR-alpha (Homo sapiens); assay: Selectivity interaction (Reporter gene assay) EUB0000190b RXRA; set-up: recommended concentration 1 uM; details: reference bexarotene 1 uM, Selectivity number of off-targets 0.0, Selectivity number of targets 1.0, Source Knowledge inhouse
[26] = target: Nuclear receptor subfamily 4immunitygroup A member 1 (Homo sapiens) (UniProt P22736); assay: Selectivity interaction (Reporter gene assay) EUB0000190b NR4A1; set-up: recommended concentration 1 uM
[27] = target: T3, Alpha trans-inducing protein (Human alphaherpesvirus 1); assay: Selectivity interaction (Reporter gene assay) EUB0000190b UL48; set-up: recommended concentration 1 uM
[28] = target: Nuclear receptor subfamily 2 group E member 1 (Homo sapiens) (UniProt Q9Y466); assay: Selectivity interaction (Reporter gene assay) EUB0000190b NR2E1; set-up: recommended concentration 1 uM
[29] = target: Nuclear receptor subfamily 2 group E member 1 (Homo sapiens) (UniProt Q9Y466); assay: Selectivity interaction (Reporter gene assay) EUB0000183b NR2E1; set-up: recommended concentration 3 uM
[30] = target: T2, Retinoic acid receptor RXR-alpha (Homo sapiens); assay: Selectivity interaction (Reporter gene assay) EUB0000183b RXRA; set-up: recommended concentration 3 uM
[31] = target: Nuclear receptor subfamily 4immunitygroup A member 1 (Homo sapiens) (UniProt P22736); assay: Selectivity interaction (Reporter gene assay) EUB0000183b NR4A1; set-up: recommended concentration 3 uM
[32] = target: Steroidogenic factor 1 (Homo sapiens) (UniProt Q13285); assay: Selectivity interaction (Reporter gene assay) EUB0000183b NR5A1; set-up: recommended concentration 3 uM
[33] = target: T1, Hepatocyte nuclear factor 4-alpha (Homo sapiens); assay: Selectivity interaction (Reporter gene assay) EUB0000183b HNF4A; set-up: recommended concentration 3 uM
[34] = target: T4, Nuclear receptor subfamily 2 group C member 1 (Homo sapiens); assay: Selectivity interaction (Reporter gene assay) EUB0000183b NR2C1; set-up: recommended concentration 3 uM
[35] = target: T3, Alpha trans-inducing protein (Human alphaherpesvirus 1); assay: Selectivity interaction (Reporter gene assay) EUB0000183b UL48; set-up: recommended concentration 3 uM

## CC(C)c1onc(-c2c(Cl)cccc2Cl)c1COc1ccc(/C=C/c2cccc(C(=O)O)c2)c(Cl)c1
[1]
  Fold activation: 1.24
[2]
  Remaining activity: 0.927
[3]
  Fold activation: 1.12
[4]
  Relative activation: 0.803%
[5]
  Fold activation: 1.41
[6]
  P-value: 3.89e-13
[7]
  Fold activation: 1.33

## CC[C@H]1[C@@H](O)[C@@H]2[C@H](CC[C@]3(C)[C@@H]([C@H](C)CCC(=O)O)CC[C@@H]23)[C@@]2(C)CC[C@@H](O)C[C@@H]12
[8]
  Fold activation: 1.19
[9]
  P-value: 0.000147
[10]
  Fold activation: 1.14
[11]
  Fold activation: 1.13
[12]
  Fold activation: 1.23
[13]
  Relative activation: 0.53%
[14]
  Fold activation: 1.04

## CCCc1c(OCCCOc2ccc(OCC(=O)O)cc2)ccc(C(C)=O)c1O
[15]
  Fold activation: 1.1
[16]
  Fold activation: 1.22
[17]
  Fold activation: 1.36
[18]
  P-value: 1.09e-07
[19]
  Fold activation: 1.34
[20]
  Remaining activity: 0.985
[21]
  Relative activation: 1.18%

## CN(CCOc1ccc(CC2SC(=O)NC2=O)cc1)c1ccccn1 (stereo not given)
[22]
  Fold activation: 1.09
[23]
  Fold activation: 1.08
[24]
  Fold activation: 1.17
[25]
  Relative activation: 1.04%
[26]
  Remaining activity: 0.964
[27]
  P-value: 2.07e-12
[28]
  Fold activation: 1.05

## Cc1cc(C)c(S(=O)(=O)N(Cc2ccc(-c3cccc(S(C)(=O)=O)c3)cc2)Cc2ccc(C(F)(F)F)o2)c(C)c1
[29]
  Fold activation: 1.26
[30]
  Relative activation: 0.984%
[31]
  Remaining activity: 0.982
[32]
  Fold activation: 1.29
[33]
  Fold activation: 1.28
[34]
  Fold activation: 1.06
[35]
  P-value: 0.011
